Consider one substance from patent US20090192048A1, “METHOD OF PRODUCING A […] AGENT FOR BINDING A LIGAND” (priority 2005, published 2009).

Holding throughout (assay type): physicochemical
The nature of series [1]: Retention of peptides on Costar polypropylene V-bottom wells. The settings on record: 400V scan. In outline: (§1)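 Peptides (5 μM) and TAMRA dried from 5 mM tris-HCl pH 8.0 in 75% acetonitrile in V-bottom wells; some wells washed 15 min at room temperature with 1 M NaCl in 10 mM tris-HCl pH 8.0. Residue redissolved in 10 mM tris-HCl pH 8.0/50% acetonitrile; retained fluorescence imaged with 532 nm excitation, 580 BP 30 filter.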

A short description of series [2]: Retention of peptides in V-bottomed polypropylene wells. The settings on record: V-bottom wells, 500V scan. The method, boiled down:
(§2)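 1 μl of 10 μM peptide or TAMRA in 10 mM Tris-HCl pH 8.0/50% acetonitrile dried in the dark in flat- or V-bottomed polypropylene wells. Some wells washed 15 min at RT with 1 M NaCl in 10 mM Tris pH 8.0, others left untreated; all redissolved in 50 μl Tris/acetonitrile and fluorescence imaged at 532 nm excitation, 580 BP 30 filter.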

Series [3] can be described thus: Retention of peptides on Greiner polypropylene V-bottom wells. The following applies: 400V scan. In outline: as §1
Series [4] in a line: Retention of peptides on Greiner polystyrene V-bottom wells. The following applies: 400V scan. The method, boiled down:
as §1

Series [5] can be described thus: Retention of peptides in flat-bottomed polypropylene wells. The settings on record: flat-bottom wells, 500V scan. In outline:
as §2

Series [6] can be described thus: Retention of peptides 2DOS-1 to 2DOS-16 on a hydrophobic surface (polypropylene microtitre plate wells), water wash. The settings on record: 400V scan. The procedure:
The retention of peptides 2DOS-1 to 2DOS-16 on a hydrophobic surface (the wells of a polypropylene microtitre plate) was then investigated.
10 mM tris-HCl (pH 8.0) in 50% (v/v) aqueous acetonitrile was used as the solvent for the peptides and for TAMRA.
100 μl aliquots of 10 μM peptides 2DOS-1 to 2DOS-16 and 10 μM TAMRA were placed in the wells of a Costar microtitre plate as shown in FIG. 13:
The microtitre plate was imaged at 200 μm resolution on a Typhoon Trio Plus variable mode imager (Amersham Biosciences) with the green (532 nm) laser and the 580 BP 30 filter at the PMT voltages indicated below and at normal sensitivity. The scan height was set at +3 mm and the sample was pressed during scanning.
The peptides were allowed to evaporate to dryness overnight in the dark and the microtitre plate was again scanned as described above.
The wells were then washed ten times with 250 μl of water.
The residual surface-bound peptides were finally resuspended in 100 μl of 10 mM tris-HCl (pH 8.0) in 50% (v/v) aqueous acetonitrile and the microtitre plate was again scanned as described above.
The fluorescence images were analysed using ImageQuant TL v2003.03 (Amersham Biosciences).
Quantification data (using the data from the 400V scan) is given in Table 2 and shown graphically in FIG. 15.

[7] abbreviates: washed 15 minutes in 1 M NaCl in 10 mM tris-HCl (pH 8.0).

Turning to “N-TAMPA- Asp-Norleu- Ala-Norleu-Ser- Norleu-Lys-C [Peptide 2DOS-5]”, the Percent retention in series [1] was determined as 31%; in series [2] it was 36%; in series [3], 27%; in series [4], 23%; in series [5] it was 45%. Moreover, the Untreated fluorescence in series [1] (unwashed) is listed as 5,331,763; in series [2] (unwashed), 8,664,667; in series [3] (unwashed), 3,817,250; in series [4] (unwashed) it was 745,029; in series [5] (unwashed), 14,337,629. Moreover, the Retained fluorescence in series [1] (setting [7]) is 1,651,850; in series [2] (setting [7]) it was 3,116,833; in series [3] (setting [7]), 1,048,978; in series [4] (setting [7]), 171,500; in series [5] (setting [7]) it was 6,492,170. The “Initial fluorescence (×10^3)” value in series [6] (100 μl of 10 μM peptide before drying and washing) is given as 32,473 ×10^3. Moreover, the “Recovered fluorescence (×10^3)” value in series [6] (dried, washed ten times with 250 μl water, resuspended) is reported as 1,270 ×10^3.
